BindingDB's records for doi:10.1021/jm5002502 (St. John'S University, 2014)

Target: Poly [ADP-ribose] polymerase 1 (Homo sapiens, UniProt P09874)
Test: Inhibition of PARP-1 (unknown origin) using biotinylated NAD+ as substrate after 60 mins by spectrophotometry

Sequence of Poly [ADP-ribose] polymerase 1 (P09874 whole entry): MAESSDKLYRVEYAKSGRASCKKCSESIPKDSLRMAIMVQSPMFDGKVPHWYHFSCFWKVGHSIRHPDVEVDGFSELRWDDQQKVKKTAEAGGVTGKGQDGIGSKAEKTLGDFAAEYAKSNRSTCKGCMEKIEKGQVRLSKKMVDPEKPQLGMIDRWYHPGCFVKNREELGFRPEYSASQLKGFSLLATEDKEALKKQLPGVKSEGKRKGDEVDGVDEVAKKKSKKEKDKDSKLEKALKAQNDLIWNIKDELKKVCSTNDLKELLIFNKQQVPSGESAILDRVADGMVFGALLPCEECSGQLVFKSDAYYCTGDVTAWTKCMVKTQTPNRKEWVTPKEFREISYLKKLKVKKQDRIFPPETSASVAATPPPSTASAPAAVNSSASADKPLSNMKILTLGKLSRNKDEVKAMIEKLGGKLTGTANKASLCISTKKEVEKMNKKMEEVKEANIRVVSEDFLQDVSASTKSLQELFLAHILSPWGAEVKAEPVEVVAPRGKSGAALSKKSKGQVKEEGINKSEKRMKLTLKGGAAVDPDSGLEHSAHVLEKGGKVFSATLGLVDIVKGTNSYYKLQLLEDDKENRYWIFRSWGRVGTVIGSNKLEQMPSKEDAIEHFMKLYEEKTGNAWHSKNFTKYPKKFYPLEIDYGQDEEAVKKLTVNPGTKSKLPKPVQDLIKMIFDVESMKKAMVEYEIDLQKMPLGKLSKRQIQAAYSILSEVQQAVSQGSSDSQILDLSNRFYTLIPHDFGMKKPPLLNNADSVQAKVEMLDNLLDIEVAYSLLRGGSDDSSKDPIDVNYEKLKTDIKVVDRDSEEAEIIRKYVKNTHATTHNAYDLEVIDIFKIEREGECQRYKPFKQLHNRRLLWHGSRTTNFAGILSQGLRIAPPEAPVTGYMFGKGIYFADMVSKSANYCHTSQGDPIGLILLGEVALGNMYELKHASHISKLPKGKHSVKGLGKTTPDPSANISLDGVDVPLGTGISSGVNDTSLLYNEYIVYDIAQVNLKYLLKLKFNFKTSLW

IC50: 4.65 µM
Structure (SMILES): CC1Cc2c(N)ccc(C(N)=O)c2O1 (stereo unspecified)
